Experimental findings from ChEMBL document CHEMBL1201862, “PubChem BioAssay data set” (2004) are described below.

Test systems include LXFL 529; SNB-75; K562; CCRF-CEM; UACC-62; SNB-78; SF-295; 786-0; SNB-19; XF498; SN12C; HT-29; U-251; HOP-92; T47D; MDA-MB-231; DU-145; MDA-MB-435; Hs-578T; BT-549.
Common to all, as to test: NCI-60 cell line screen, 48 h

Structures are written as SMILES.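 Growth conditions: 96-well plates. Treatment: test compound, 48 hours, 5 concentrations. Analysis: linear interpolation between bracketing concentrations; unreached endpoints set to highest concentration. The concentration for 50% growth inhibition is given as GI50.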 Activity calls are given as the source filed them. No stated cut-off is given here; in the data, active = GI50 up to about 1.1 µM and inactive = higher.

As to `CCOC(=O)C1=C(Nc2ccccc2)OC/C1=N\NC(=O)Cc1ccccc1`, the GI50 in the assay with LXFL 529 was > 50 µM (inactive); with SNB-75 it was 31.4 µM (inactive); in the assay with K562, > 50 µM (inactive); in the assay with CCRF-CEM it was > 50 µM (inactive); in the assay on UACC-62 it was > 50 µM (inactive); with SNB-78, > 50 µM (inactive). The GI50 in the assay with SF-295, in the assay with 786-0, in the assay with SNB-19, in the assay with XF498, in the assay with SN12C and in the assay on HT-29 was > 50 µM (inactive) in each case. Besides, the GI50 in the assay on U-251 and in the assay on HOP-92 was > 50 µM (inactive) in each case.

`CN(c1nc(=[N+](C)C)ss1)C1CCCCC1`: the GI50 is > 100 µM (inactive) in the assay with LXFL 529; > 100 µM (inactive) in the assay on SNB-75; > 100 µM (inactive) with K562; 6.92 µM (inactive) with CCRF-CEM; 19.4 µM (inactive) in the assay on UACC-62; > 100 µM (inactive) in the assay on SNB-78. For the same compound, the GI50 in the assay on SF-295 is 93.1 µM (inactive); with 786-0, > 100 µM (inactive); in the assay with SNB-19, 70.5 µM (inactive); with XF498, > 100 µM (inactive); in the assay with SN12C, > 100 µM (inactive); in the assay on HT-29 it was > 100 µM (inactive). Moreover, the GI50 in the assay with U-251 is 33.4 µM (inactive); with HOP-92, > 100 µM (inactive).

For the compound `Cc1cc(C(C)(C)C)cc(Cc2cc(C(C)(C)C)cc(Cc3cc(C(C)(C)C)cc(C)c3O)c2O)c1O`, the GI50 with LXFL 529 is 8.04 µM (inactive); in the assay with SNB-75, 4.49 µM (inactive); in the assay with K562, 4.54 µM (inactive); in the assay with CCRF-CEM it was 3.04 µM (inactive); in the assay on UACC-62, 6.84 µM (inactive); in the assay on SNB-78, 4.98 µM (inactive). In addition, the GI50 in the assay with SF-295 was 16 µM (inactive); in the assay on 786-0, 5.64 µM (inactive); in the assay on SNB-19, 13 µM (inactive); in the assay with XF498, 1.65 µM (inactive); in the assay on SN12C, 7.28 µM (inactive); in the assay with HT-29 it was 11.7 µM (inactive). The GI50 with U-251 was 4.07 µM (inactive); with HOP-92 it was 2.94 µM (inactive).

In the case of `CCCCN(CCCC)C(=O)C(=O)C(C#N)c1ccc(C)cc1` (stereo not given), the GI50 in the assay with LXFL 529, in the assay with SNB-75, with K562, in the assay with CCRF-CEM, in the assay with UACC-62 and in the assay with SNB-78 was > 100 µM (inactive) in each case. In addition, the GI50 in the assay with SF-295, in the assay with 786-0, in the assay with SNB-19, in the assay with XF498, with SN12C and with HT-29 was > 100 µM (inactive) each time. Also, the GI50 in the assay with U-251 and in the assay with HOP-92 was > 100 µM (inactive) each time.

In the case of `CCCc1c(C(=O)OCC)[nH]c(-c2ccc(-c3[nH]c(C(=O)OCC)c(CCC)c3C(=O)OCC)o2)c1C(=O)OCC`, the GI50 with LXFL 529, with SNB-75, in the assay on K562, in the assay on CCRF-CEM, with UACC-62 and in the assay on SNB-78 was > 100 µM (inactive) each time. The GI50 in the assay with SF-295, in the assay on 786-0, in the assay on SNB-19, in the assay on XF498, in the assay with SN12C and in the assay with HT-29 was > 100 µM (inactive) throughout. In addition, the GI50 with U-251 and in the assay on HOP-92 was > 100 µM (inactive) throughout.

Consider `COc1cc(/C=C/C(=O)Oc2ccc(NC(C)=O)cc2)ccc1C(=O)OCc1ccccc1`, for which the GI50 was > 100 µM (inactive) in the assay with LXFL 529; 20 µM (inactive) in the assay on SNB-75; > 100 µM (inactive) in the assay on K562; 64.3 µM (inactive) in the assay on CCRF-CEM; 69.2 µM (inactive) with UACC-62; > 100 µM (inactive) in the assay with T47D. Besides, the GI50 in the assay on MDA-MB-231 is > 100 µM (inactive); with SNB-78 it was 32.6 µM (inactive); in the assay on SF-295 it was 40.6 µM (inactive); in the assay on 786-0 it was 39.6 µM (inactive); with DU-145 it was > 77.3 µM (inactive); in the assay on SNB-19 it was 52.7 µM (inactive). For the same compound, the GI50 in the assay with XF498 is 25.6 µM (inactive); in the assay on MDA-MB-435, > 100 µM (inactive); in the assay with SN12C, > 92.5 µM (inactive); in the assay with HT-29, > 100 µM (inactive); with Hs-578T, > 100 µM (inactive); in the assay with BT-549 it was > 100 µM (inactive). The GI50 is 41 µM (inactive) in the assay on U-251 and 74.3 µM (inactive) in the assay on HOP-92.

Turning to `CC(=O)O[C@H]1CC[C@@]2(C)C(=CC[C@@H]3C2CC[C@]2(C)C(=O)NC(=O)CC32)C1` (stereo not given in full), the GI50 was > 100 µM (inactive) with LXFL 529; > 100 µM (inactive) with SNB-75; > 56 µM (inactive) in the assay with K562; > 73.8 µM (inactive) with CCRF-CEM; > 100 µM (inactive) in the assay with UACC-62; > 100 µM (inactive) in the assay with SNB-78. The GI50 in the assay on SF-295 is > 100 µM (inactive); in the assay with 786-0 it was 63.5 µM (inactive); in the assay on SNB-19, > 100 µM (inactive); in the assay on XF498 it was > 100 µM (inactive); in the assay on SN12C it was > 100 µM (inactive); in the assay with HT-29 it was 97.5 µM (inactive). Besides, the GI50 is 58.6 µM (inactive) in the assay on U-251 and > 100 µM (inactive) with HOP-92.

As for `C=C/C=C/NC(=O)OCc1ccccc1`, the GI50 in the assay on LXFL 529, in the assay with SNB-75, in the assay on K562, in the assay with CCRF-CEM, in the assay with UACC-62 and in the assay with SNB-78 was > 100 µM (inactive) each time. For the same compound, the GI50 with SF-295, in the assay with 786-0, with SNB-19, with XF498, in the assay on SN12C and in the assay with HT-29 was > 100 µM (inactive) each time. Besides, the GI50 in the assay on U-251 and in the assay with HOP-92 was > 100 µM (inactive) throughout.

Consider `CC(C(=O)C(C)O[Si](c1ccccc1)(c1ccccc1)C(C)(C)C)=P(c1ccccc1)(c1ccccc1)c1ccccc1` (stereo not given), for which the GI50 with LXFL 529 was 3.3 µM (inactive); in the assay with SNB-75 it was 3.41 µM (inactive); with K562, 2.95 µM (inactive); in the assay with CCRF-CEM, 3.5 µM (inactive); in the assay on UACC-62 it was 3.94 µM (inactive); with SNB-78, 3.48 µM (inactive). Further, the GI50 in the assay on SF-295 was 3.33 µM (inactive); in the assay on 786-0, 4.06 µM (inactive); in the assay with SNB-19, 3.96 µM (inactive); with XF498 it was 2.79 µM (inactive); with SN12C it was 3.77 µM (inactive); in the assay on HT-29 it was 3.08 µM (inactive). Moreover, the GI50 in the assay with U-251 is 4.01 µM (inactive); in the assay with HOP-92 it was 2.21 µM (inactive).

Take `Cn1cnc([N+](=O)[O-])c1Sc1nc2cc([N+](=O)[O-])ccc2[nH]1`: the GI50 was 12.6 µM (inactive) in the assay with LXFL 529; 26.2 µM (inactive) in the assay on SNB-75; 24.8 µM (inactive) in the assay on K562; 15.4 µM (inactive) in the assay on CCRF-CEM; 11.9 µM (inactive) in the assay on UACC-62; 24.1 µM (inactive) in the assay on SNB-78. In addition, the GI50 with SF-295 is > 100 µM (inactive); in the assay with 786-0, 42.4 µM (inactive); with SNB-19, 42.3 µM (inactive); in the assay on XF498, 10.8 µM (inactive); with SN12C, > 10 µM (inactive); in the assay with HT-29 it was 36.4 µM (inactive). For the same compound, the results for the GI50 in the assay on U-251 and with HOP-92 were 27 µM (inactive) and 17.3 µM (inactive), respectively.

In the case of `[O-][n+]1ccccc1S` [PYRITHIONE ZINC], the GI50 in the assay on LXFL 529 was 0.327 µM (active); in the assay on SNB-75, 3.03 µM (inactive); with K562, 0.107 µM (active); in the assay with CCRF-CEM, 0.0331 µM (active); in the assay with UACC-62, 0.604 µM (active); with SNB-78, 3.94 µM (inactive). Moreover, the GI50 with SF-295 is 4.46 µM (inactive); with 786-0, 0.343 µM (active); in the assay with SNB-19 it was 5.2 µM (inactive); with XF498 it was 0.226 µM (active); with SN12C, 1.87 µM (inactive); with HT-29 it was 0.176 µM (active). Further, the GI50 with U-251 was 1.34 µM (inactive); in the assay on HOP-92, 3.24 µM (inactive).
